Assay results taken from US20050043247A1, “Spray-dried amorphous BIBN 4096, process for preparing and the use thereof as inhalative” (Boehringer Ingelheim International GmbH, priority 2003, published 2005).

Columns and labels:
[1] = Determining the specific surface area (multi point BET, nitrogen); format: physicochemical; conditions: spray-dried microparticles from ethanol solution; 16 point BET
Description: b) Determining the Specific Surface Area:
Measuring method: The specific surface is determined by exposing the powder sample to a nitrogen atmosphere at different pressures. Cooling the sample causes the nitrogen molecules to be condensed on the surface of the particles. The quantity of condensed nitrogen is determined by means of the drop in pressure in the system and the surface of the sample is calculated by means of the surface nitrogen requirement and the weight of the sample.
Measuring device: Tri Star Multi Point BET, Messrs. Micromeritics
Heating station: VacPrep 061, Messrs. Micromeritics
Heating: approx. 12 h /40° C.

[2] = Bioavailability after administration by inhalation as powder inhalant; conditions: in vivo, inhaled or intranasal; administered by inhalation as powder inhalant; based on the fine content of the formulation (FPD, fine particle dose, USP 24 Suppl. 2000)
[3] = conventional formulations; cited from earlier work
[4] = Determining the particle size by laser diffraction (Frauenhofer diffraction); format: physicochemical
Description: a) Determining the Particle Size by Laser Diffraction (Frauenhofer Diffraction):
Measuring method: In order to determine the particle size the powder is fed into a laser diffraction spectrometer using a dispersing unit. The median value X50 refers to the particle size below which 50% of the quantity of particles fall. The Q(5.8) value describes the percentage of particles which are less than 5.8 μm in size.
Measuring device: Laser diffraction spectrometer (HELOS), Messrs. Sympatec
Dispersing unit: RODOS/dispersing pressure: 3 bar
Focal length: 100 mm [measuring range: 0.9 . . . 175 μm]
Evaluation method: HRLD (V 4)

[5] = Stability of the amorphous state; format: physicochemical; conditions: normal conditions (T<50° C., relative humidity<75%); microparticles

NCCCC[C@H](NC(=O)[C@@H](Cc1cc(Br)c(O)c(Br)c1)NC(=O)N1CCC(N2Cc3ccccc3NC2=O)CC1)C(=O)N1CCN(c2ccncc2)CC1 [A, 1-[N^2-[3,5-dibromo-N-[[4-(3,4-dihydro-2(1H)-oxoquinazolin-3-yl)-1-piperidinyl]carbonyl]-D-tyrosyl]-L-lysyl]-4-(4-pyridinyl)-piperazine]
Specific surface area Sm [1]: 21.5 m^2/g | bioavailability [2]: ~60% | oral bioavailability [3]: very limited oral bioavailability | Particle size X50 ([4]; spray-dried microparticles from 0.5 g (A) in 100 mL ethanol, median particle size, RODOS dispersing pressure 3 bar): 1.2 μm | Particle size Q(5.8) ([4]; spray-dried microparticles from ethanol solution, percentage of particles less than 5.8 μm in size): 99.5% | stability in the amorphous state [5]: stable in the amorphous state
